Test systems include HL-60(TB) leukemia; SF-268 CNS; NCI-H522 lung; U251 CNS; OVCAR-8 ovarian; PC-3 prostate; HCC-2998 colon; NCI-H460 lung; MCF7 breast; SW-620 colon.
Assay in all cases: NCI anticancer screen, dose series, 48 h

These results are taken from PubChem BioAssay (NCI).

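Method: 48-hour compound exposure of cells in 96-well plates, five concentrations, linear interpolation of endpoints. GI50 marks 50% less growth. TGI denotes the concentration required for complete inhibition of growth.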

Turning to `CCN1CCN(C(=O)[C@@]2(C)CC[C@]3(C)CC[C@]4(C)C(=CC(=O)[C@@H]5[C@@]6(C)CC[C@H](OC7C[C@@H](O)[C@@H](O)C(C)O7)C(C)(C)[C@@H]6CC[C@]54C)[C@@H]3C2)CC1` (some centres undefined), the GI50 in the assay with HL-60(TB) leukemia was 0.939 µM; in the assay on SF-268 CNS, 1.6 µM; with NCI-H522 lung it was 1.59 µM; in the assay with U251 CNS it was 1.52 µM; in the assay with OVCAR-8 ovarian it was 1.62 µM; in the assay on PC-3 prostate it was 2.47 µM. In addition, the GI50 with HCC-2998 colon was 2.26 µM; with NCI-H460 lung, 0.948 µM; with MCF7 breast, 1.79 µM; in the assay with SW-620 colon it was 1.7 µM. The TGI in the assay with HL-60(TB) leukemia stood at 1.91 µM; in the assay with SF-268 CNS, 6.18 µM; with NCI-H522 lung, 6.15 µM; in the assay on U251 CNS it was 5.68 µM; with OVCAR-8 ovarian, 6.82 µM; with PC-3 prostate, 9.02 µM. The TGI with HCC-2998 colon turned out to be 8.94 µM; in the assay on NCI-H460 lung, 1.86 µM; in the assay on MCF7 breast, 7.54 µM; in the assay on SW-620 colon, 6.36 µM.
Turning to `C/C=C(\C)C(=O)O[C@H]1C=CC(=O)O[C@H]1CCC(=O)[C@H](C)O`, the GI50 in the assay with HL-60(TB) leukemia was 7.34 µM; in the assay with SF-268 CNS it was 11.3 µM; in the assay on NCI-H522 lung it was 13.5 µM; in the assay with U251 CNS, 12.9 µM; with OVCAR-8 ovarian it was 20.7 µM; in the assay on PC-3 prostate, 15.8 µM. In addition, the GI50 in the assay on HCC-2998 colon is 17.1 µM; in the assay on NCI-H460 lung, 19.2 µM; in the assay on MCF7 breast it was 7.47 µM; with SW-620 colon it was 4.9 µM. Besides, the TGI came to 24.8 µM in the assay on HL-60(TB) leukemia; 26.1 µM with SF-268 CNS; 33.7 µM in the assay on NCI-H522 lung; 26.4 µM in the assay with U251 CNS; 52.8 µM in the assay on OVCAR-8 ovarian; 32 µM with PC-3 prostate. Besides, the TGI in the assay with HCC-2998 colon was determined as 32.4 µM; in the assay on NCI-H460 lung, 43.2 µM; with MCF7 breast it was 21.9 µM; with SW-620 colon, 16.2 µM.
As to `Cc1ccc(SC2c3ccc(C)cc3Oc3nc(N)c(C#N)c(N)c32)cc1` (centres undefined), the GI50 in the assay with HL-60(TB) leukemia was 2.09 µM; in the assay on SF-268 CNS, 1.83 µM; in the assay on NCI-H522 lung, 1.67 µM; with U251 CNS it was 1.69 µM; in the assay on OVCAR-8 ovarian, 1.67 µM; in the assay on PC-3 prostate, 1.85 µM. Besides, the GI50 was 1.8 µM in the assay with HCC-2998 colon, 1.94 µM with NCI-H460 lung, 1.94 µM in the assay with MCF7 breast and 1.84 µM in the assay with SW-620 colon. Besides, the TGI amounted to 5.49 µM with HL-60(TB) leukemia; 4.06 µM in the assay on SF-268 CNS; 3.11 µM in the assay on NCI-H522 lung; 3.08 µM in the assay with U251 CNS; 3.06 µM in the assay on OVCAR-8 ovarian; 3.74 µM with PC-3 prostate. Further, the TGI with HCC-2998 colon came out at 3.46 µM; with NCI-H460 lung it was 4.07 µM; with MCF7 breast, 4.74 µM; in the assay with SW-620 colon, 3.84 µM.
As to `CC1(C)S[C@@H]2[C@H](NC(=O)C3(N)CCCCC3)C(=O)N2[C@H]1C(=O)O`, the TGI in the assay on HL-60(TB) leukemia, with SF-268 CNS, in the assay on NCI-H522 lung, with U251 CNS, in the assay on OVCAR-8 ovarian and with PC-3 prostate was more than 100 µM in each case. The TGI with HCC-2998 colon, in the assay on NCI-H460 lung, in the assay on MCF7 breast and with SW-620 colon was more than 100 µM in each case.
For `Nc1ccc([N+](=O)[O-])cc1N=C/C=C/c1ccccc1`, the GI50 is 2.64 µM with HL-60(TB) leukemia; 5.91 µM in the assay with SF-268 CNS; 4.47 µM in the assay on NCI-H522 lung; 6.16 µM with U251 CNS; 23.5 µM in the assay on OVCAR-8 ovarian; 7.67 µM in the assay on PC-3 prostate. Further, the GI50 with HCC-2998 colon is 30.1 µM; with NCI-H460 lung, 11.3 µM; in the assay with MCF7 breast, 6.61 µM; in the assay on SW-620 colon, 6.12 µM. For the same compound, the TGI is more than 100 µM with HL-60(TB) leukemia; 40.6 µM in the assay with SF-268 CNS; 59 µM with NCI-H522 lung; 77.5 µM in the assay on U251 CNS; more than 100 µM with OVCAR-8 ovarian; more than 100 µM in the assay on PC-3 prostate. The TGI with HCC-2998 colon was more than 100 µM; in the assay with NCI-H460 lung it was 41.9 µM; in the assay on MCF7 breast, more than 100 µM; in the assay with SW-620 colon it was more than 100 µM.
On to `N#Cc1c(NC(=O)NCc2ccccc2)sc2c1CCCCC2`, for which the GI50 with HL-60(TB) leukemia was 0.286 µM; with SF-268 CNS, 1.52 µM; in the assay with NCI-H522 lung, 0.601 µM; in the assay on U251 CNS, 0.535 µM; in the assay on OVCAR-8 ovarian, 1.61 µM; in the assay with PC-3 prostate it was 0.488 µM. For the same compound, the GI50 was 1.77 µM in the assay on HCC-2998 colon, 0.352 µM in the assay on NCI-H460 lung, 0.353 µM with MCF7 breast and 0.406 µM in the assay on SW-620 colon. The TGI was 0.843 µM in the assay with HL-60(TB) leukemia; more than 100 µM in the assay with SF-268 CNS; 25.3 µM with NCI-H522 lung; more than 71.2 µM with U251 CNS; more than 100 µM in the assay on OVCAR-8 ovarian; more than 100 µM with PC-3 prostate. The TGI with HCC-2998 colon was more than 28.5 µM; with NCI-H460 lung, more than 31.7 µM; with MCF7 breast, more than 100 µM; in the assay on SW-620 colon, more than 100 µM.
For `CSc1nc(=O)n(CCC#N)nc1SC`, the TGI with HL-60(TB) leukemia was 30.7 µM; in the assay on SF-268 CNS, 53.1 µM; with NCI-H522 lung, 61.8 µM; in the assay on U251 CNS, more than 100 µM; in the assay with OVCAR-8 ovarian, more than 100 µM; with PC-3 prostate, more than 100 µM. Further, the TGI in the assay on HCC-2998 colon was 31.9 µM; in the assay with NCI-H460 lung it was more than 100 µM; with MCF7 breast it was 9.04 µM; in the assay with SW-620 colon, 58.3 µM.
For `COc1ccc(OC)c2c1[nH]c(=O)c1c3ccccc3cn21`, the GI50 was 1.7 µM with HL-60(TB) leukemia; 1.42 µM in the assay on SF-268 CNS; 1.7 µM with NCI-H522 lung; 1.37 µM with U251 CNS; 1.26 µM with OVCAR-8 ovarian; 1.39 µM with PC-3 prostate. The GI50 is 1.34 µM with HCC-2998 colon, 1.1 µM in the assay on NCI-H460 lung, 0.0727 µM with MCF7 breast and 0.59 µM in the assay with SW-620 colon. Besides, the TGI turned out to be 4.24 µM in the assay on HL-60(TB) leukemia; 3.04 µM in the assay with SF-268 CNS; 3.48 µM with NCI-H522 lung; 2.76 µM with U251 CNS; 3.36 µM with OVCAR-8 ovarian; 4.21 µM in the assay with PC-3 prostate. Further, the TGI is 2.68 µM with HCC-2998 colon, 2.73 µM with NCI-H460 lung, 1.98 µM in the assay with MCF7 breast and 2.11 µM with SW-620 colon.
On to `COc1cccc(C2CC(C)(O)Oc3cc4c(cc32)OCO4)c1O` (centres undefined), for which the TGI was more than 59 µM with HL-60(TB) leukemia; more than 91.2 µM with SF-268 CNS; 53.5 µM in the assay on NCI-H522 lung; 70.4 µM in the assay on U251 CNS; 67.8 µM in the assay on OVCAR-8 ovarian; more than 100 µM with PC-3 prostate. For the same compound, the TGI in the assay with HCC-2998 colon is 51.2 µM; with NCI-H460 lung it was more than 92.7 µM; with MCF7 breast, more than 66.5 µM; in the assay on SW-620 colon, more than 100 µM.
For `CSC1=Nc2c(c(C)c(C)n2COC(CO)CO)C2=NC(=O)C(C)N12` (centres undefined), the TGI in the assay on HL-60(TB) leukemia, with SF-268 CNS, in the assay on NCI-H522 lung, with U251 CNS, in the assay on OVCAR-8 ovarian and in the assay on PC-3 prostate was more than 100 µM in each case. The TGI in the assay with HCC-2998 colon, in the assay with NCI-H460 lung, in the assay with MCF7 breast and in the assay with SW-620 colon was more than 100 µM throughout. In addition, the GI50 in the assay on SF-268 CNS, in the assay with NCI-H522 lung, in the assay with U251 CNS, with OVCAR-8 ovarian, in the assay on PC-3 prostate and in the assay on HCC-2998 colon was more than 100 µM each time. Besides, the GI50 in the assay on NCI-H460 lung, in the assay with MCF7 breast and in the assay with SW-620 colon was more than 100 µM each time.
On to `N#Cc1c(N)nc(N2CCOCC2)c(C#N)c1-c1ccncc1`, for which the GI50 with HL-60(TB) leukemia was 62.9 µM; in the assay on SF-268 CNS it was more than 100 µM; in the assay with NCI-H522 lung it was 22.7 µM; in the assay on U251 CNS it was more than 100 µM; in the assay with OVCAR-8 ovarian, more than 100 µM; in the assay on PC-3 prostate it was 32 µM. Moreover, the GI50 with HCC-2998 colon was 13.3 µM; in the assay with NCI-H460 lung it was 98.1 µM; in the assay with MCF7 breast, 34.5 µM; in the assay with SW-620 colon it was more than 100 µM. Also, the TGI in the assay with HL-60(TB) leukemia, with SF-268 CNS, in the assay on NCI-H522 lung, with U251 CNS, in the assay on OVCAR-8 ovarian and in the assay with PC-3 prostate was more than 100 µM each time. Further, the TGI is 64.3 µM in the assay on HCC-2998 colon, more than 100 µM in the assay on NCI-H460 lung, more than 100 µM in the assay on MCF7 breast and more than 100 µM in the assay on SW-620 colon.
With `CC1(C)CC(=O)C(C=NC(=S)c2ccccc2)=C(O)C1`, the TGI in the assay on HL-60(TB) leukemia, in the assay on SF-268 CNS, in the assay on NCI-H522 lung, in the assay with U251 CNS, in the assay on OVCAR-8 ovarian and with PC-3 prostate was more than 100 µM each time. Besides, the TGI in the assay with HCC-2998 colon, in the assay with NCI-H460 lung, in the assay on MCF7 breast and with SW-620 colon was more than 100 µM throughout.
Take `NC(=O)/C=C/C(=O)c1c(Cl)cccc1Cl`: the GI50 is 0.679 µM with HL-60(TB) leukemia; 1.71 µM with SF-268 CNS; 0.204 µM with NCI-H522 lung; 1.36 µM in the assay on U251 CNS; 1.75 µM in the assay with OVCAR-8 ovarian; 1.46 µM in the assay with PC-3 prostate. Further, the GI50 in the assay on HCC-2998 colon was 1.51 µM; in the assay with NCI-H460 lung it was 1.82 µM; with MCF7 breast it was 0.444 µM; in the assay with SW-620 colon it was 0.511 µM. The TGI with HL-60(TB) leukemia came out at 4.05 µM; in the assay with SF-268 CNS, 3.21 µM; with NCI-H522 lung it was 0.432 µM; in the assay on U251 CNS, 2.67 µM; in the assay on OVCAR-8 ovarian, 3.27 µM; in the assay on PC-3 prostate it was 2.81 µM. Further, the TGI in the assay on HCC-2998 colon came out at 2.88 µM; with NCI-H460 lung, 3.49 µM; with MCF7 breast, 1.79 µM; in the assay on SW-620 colon, 1.04 µM.
